{"source": "patent US5298499A", "about": "“S-2-(substituted ethylamino)ethyl phosphorothioates” (Research Triangle Institute, priority 1991, dated 1994)", "origin": "cited, not measured here", "key": {"[1]": {"conditions": "background statement"}}, "note": "Read-outs that look alike come from different tables or passages of the source."}
{"smiles": "NCCCNCCS", "note": "[Compound 2]", "values": [{"measurement": "radioprotective activity", "setting": "literature", "result": "known to be a radioprotective agent"}]}
{"smiles": "NC(=O)CCNCCS", "note": "[Compound 3, 2-(2.varies.-carbamidoethylamino)ethanethiol]", "values": [{"measurement": "radioprotective activity", "setting": "literature", "result": "good radioprotective activity, comparable to that of compound 2"}]}
{"smiles": "NCCCNCCSP(=O)(O)O", "note": "[WR2721, S-2-[3-aminopropylamino]ethylphosphorothioicacid]", "values": [{"measurement": "uptake in malignant and healthy tissue", "setting": "[1]", "result": "comparable uptake"}, {"measurement": "radioprotective activity", "setting": "in vivo", "result": "most effective agent"}]}
